The compounds below were run against Jak2 (human Jak2 kinase domain, amino acids 808-1132) (Homo sapiens (Human), UniProt O60674) (assay: Jak2 inhibition assay (Omnia kinase assay)). Conditions: read-out: Jak2 Enzyme (% inhibition at 1000 nM), Table 1; 1000 nM test compound.
Type: biochemical
Description: The assays described in Examples C, D, E and F for the determination of JAK1, JAK2, JAK3 and Tyk2 kinase activity, respectively, utilized the Omnia® Kinase fluorescence peptide substrate-based technology (Invitrogen). […] The reactions were therefore read at excitation 360 nm and emission was measured at 485 nm every 50 seconds for 45 minutes using a PerkinElmer EnVision Multilabel Plate Reader.
The final buffer conditions for each of the JAK1, JAK2, JAK3 and Tyk2 assays were as follows: 25 mM HEPES, pH 7.4, 10 mM MgCl2, 0.01% Triton X-100 and 1 mM DTT.
Two-μL aliquots of these were transferred to a fresh plate for a ten-fold intermediate dilution with assay buffer. Five-μL aliquots of the diluted compounds were then transferred to 20-μL of assay mixtures described in Examples C, D, E and F for a final concentration of DMSO of 2%. […] For each plate, percent of control (POC) values were calculated for each well according to the following equation:
where Xmax=Average Uninhibited Controls • Xmin=Average Background IC50's were estimated from the POC's using a standard 4-parameter logistic model:
where A=Minimum Y (Bottom Asymptote) • B=Maximum Y (Top Asymptote) • C=EC50 • D=Slope Factor • X=Compound Concentration (nM) • Y=POC
The IC50 is defined as the concentration of inhibitor at which the POC equals 50 for the fitted curve.
Compounds of Formula I were screened for their ability to inhibit Jak2 using the general enzyme inhibition assay method, in which the assay mixture contained 500 μM ATP, 10 μM Omnia® Y7 peptide (Catalog # IVGN KNZ3071C, Invitrogen Corporation, Carlsbad, Calif.) and 4 nM Jak2 in a total volume of 20 μL. Human Jak2 kinase domain comprising amino acids 808-1132 was purchased from Invitrogen Corporation, Carlsbad, Calif. (catalog # IVGN PV4210).

Chain of Jak2 (human Jak2 kinase domain, amino acids 808-1132) (O60674 808-1132): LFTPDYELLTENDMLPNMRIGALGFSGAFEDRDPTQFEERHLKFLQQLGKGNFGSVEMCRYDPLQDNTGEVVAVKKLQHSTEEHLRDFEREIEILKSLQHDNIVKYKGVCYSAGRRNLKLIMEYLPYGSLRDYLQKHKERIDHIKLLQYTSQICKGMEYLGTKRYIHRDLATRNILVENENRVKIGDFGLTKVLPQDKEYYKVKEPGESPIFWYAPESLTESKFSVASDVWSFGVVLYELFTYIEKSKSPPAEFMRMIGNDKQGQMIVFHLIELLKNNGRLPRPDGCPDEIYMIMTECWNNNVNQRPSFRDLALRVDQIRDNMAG

Row | SMILES | inhibition at 1 µM
1 | CC1(O)CCC(NC(=O)c2cnn3ccc(N4CCC[C@@H]4c4cc(F)ccc4F)nc23)CC1 (single isomer, unassigned; diastereomer 1) [Example 50] | 73.7%
2 | C[C@@H](O)CNC(=O)c1cnn2ccc(N3CCCC3c3cc(F)ccc3F)nc12 (stereo in doubt) [Example 167, 5-((R)-2-(2,5-difluorophenyl)pyrrolidin-1-yl)-N-(2-hydroxypropyl)pyrazolo[1,5-a]pyrimidine-3-carboxamide] | 9.8%
3 | CC(C)(C)NC(=O)c1cnn2ccc(N3CCC[C@@H]3c3cc(F)ccc3F)nc12 [Example 1, (R)—N-tert-butyl-5-(2-(2,5-difluorophenyl)pyrrolidin-1-yl)pyrazolo[1,5-a]pyrimidine-3-carboxamide] | 39.5%
4 | O=C(Nc1ccccn1)c1cnn2ccc(N3CCC[C@@H]3c3cc(F)ccc3F)nc12 [Example 2, (R)-5-(2-(2,5-difluorophenyl)pyrrolidin-1-yl)-N-(pyridin-2-yl)pyrazolo[1,5-a]pyrimidine-3-carboxamide] | 19.1%
5 | Cc1cccnc1NC(=O)c1cnn2ccc(N3CCC[C@@H]3c3cc(F)ccc3F)nc12 [Example 3, (R)-5-(2-(2,5-difluorophenyl)pyrrolidin-1-yl)-N-(3-methylpyridin-2-yl)pyrazolo[1,5-a]pyrimidine-3-carboxamide] | 10.1%
6 | O=C(NCCN1CCOCC1)c1cnn2ccc(N3CCC[C@@H]3c3cc(F)ccc3F)nc12 [Example 4, (R)-5-(2-(2,5-difluorophenyl)pyrrolidin-1-yl)-N-(2-morpholinoethyl)pyrazolo[1,5-a]pyrimidine-3-carboxamide] | 18.8%
7 | Cc1ccc(CNC(=O)c2cnn3ccc(N4CCC[C@@H]4c4cc(F)ccc4F)nc23)o1 [Example 5, (R)-5-(2-(2,5-difluorophenyl)pyrrolidin-1-yl)-N-((5-methylfuran-2-yl)methyl)pyrazolo[1,5-a]pyrimidine-3-carboxamide] | 14.2%
8 | Cn1ccc(NC(=O)c2cnn3ccc(N4CCC[C@@H]4c4cc(F)ccc4F)nc23)n1 [Example 6, (R)-5-(2-(2,5-difluorophenyl)pyrrolidin-1-yl)-N-(1-methyl-1H-pyrazol-3-yl)pyrazolo[1,5-a]pyrimidine-3-carboxamide] | 12.9%
9 | O=C(N[C@H]1CC[C@H](O)CC1)c1cnn2ccc(N3CCC[C@@H]3c3cc(F)ccc3F)nc12 [Example 7, 5-((R)-2-(2,5-difluorophenyl)pyrrolidin-1-yl)-N-((trans)-4-hydroxycyclohexyl)pyrazolo[1,5-a]pyrimidine-3-carboxamide] | 90%
10 | CC(C)(CO)NC(=O)c1cnn2ccc(N3CCC[C@@H]3c3cc(F)ccc3F)nc12 [Example 8, (R)-5-(2-(2,5-difluorophenyl)pyrrolidin-1-yl)-N-(1-hydroxy-2-methylpropan-2-yl)pyrazolo[1,5-a]pyrimidine-3-carboxamide] | 25.7%
11 | CC(C)(CN1CCOCC1)NC(=O)c1cnn2ccc(N3CCC[C@@H]3c3cc(F)ccc3F)nc12 [Example 9, (R)-5-(2-(2,5-difluorophenyl)pyrrolidin-1-yl)-N-(2-methyl-1-morpholinopropan-2-yl)pyrazolo[1,5-a]pyrimidine-3-carboxamide] | 4.6%
12 | CNC(=O)c1cnn2ccc(N3CCC[C@@H]3c3cc(F)ccc3F)nc12 [Example 10, (R)-5-(2-(2,5-difluorophenyl)pyrrolidin-1-yl)-N-methylpyrazolo[1,5-a]pyrimidine-3-carboxamide] | 47.5%
13 | O=C(O)C1CCN(C(=O)c2cnn3ccc(N4CCC[C@@H]4c4cc(F)ccc4F)nc23)CC1 [Example 11, (R)-1-(5-(2-(2,5-difluorophenyl)pyrrolidin-1-yl)pyrazolo[1,5-a]pyrimidine-3-carbonyl)piperidine-4-carboxylic Acid] | 10.1%
14 | O=C(O)CC1CCN(C(=O)c2cnn3ccc(N4CCC[C@@H]4c4cc(F)ccc4F)nc23)CC1 [Example 12, (R)-2-(1-(5-(2-(2,5-difluorophenyl)pyrrolidin-1-yl)pyrazolo[1,5-a]pyrimidine-3-carbonyl)piperidin-4-yl)acetic Acid] | 4.5%
15 | O=C(NC1CC1)c1cnn2ccc(N3CCC[C@@H]3c3cc(F)ccc3F)nc12 [Example 13, (R)—N-cyclopropyl-5-(2-(2,5-difluorophenyl)pyrrolidin-1-yl)pyrazolo[1,5-a]pyrimidine-3-carboxamide] | 41.4%
16 | O=C(NC1CCC1)c1cnn2ccc(N3CCC[C@@H]3c3cc(F)ccc3F)nc12 [Example 14, (R)—N-cyclobutyl-5-(2-(2,5-difluorophenyl)pyrrolidin-1-yl)pyrazolo[1,5-a]pyrimidine-3-carboxamide] | 66.7%
17 | O=C(NC1(CO)CC1)c1cnn2ccc(N3CCC[C@@H]3c3cc(F)ccc3F)nc12 [Example 16, (R)-5-(2-(2,5-difluorophenyl)pyrrolidin-1-yl)-N-(1-(hydroxymethyl)cyclopropyl)pyrazolo[1,5-a]pyrimidine-3-carboxamide] | 31.7%
18 | CC(C)(O)CNC(=O)c1cnn2ccc(N3CCC[C@@H]3c3cc(F)ccc3F)nc12 [Example 17, (R)-5-(2-(2,5-difluorophenyl)pyrrolidin-1-yl)-N-(2-hydroxy-2-methylpropyl)pyrazolo[1,5-a]pyrimidine-3-carboxamide] | 5.6%
19 | O=C(c1cnn2ccc(N3CCC[C@@H]3c3cc(F)ccc3F)nc12)N1CC[C@H](O)C1 [Example 18, (5-((R)-2-(2,5-difluorophenyl)pyrrolidin-1-yl)pyrazolo[1,5-a]pyrimidin-3-yl)((S)-3-hydroxypyrrolidin-1-yl)methanone] | 2.8%
20 | O=C(c1cnn2ccc(N3CCC[C@@H]3c3cc(F)ccc3F)nc12)N1CC[C@@H](O)C1 [Example 19, (5-((R)-2-(2,5-difluorophenyl)pyrrolidin-1-yl)pyrazolo[1,5-a]pyrimidin-3-yl)((R)-3-hydroxypyrrolidin-1-yl)methanone] | 3.4%
21 | O=C(NC1CCOCC1)c1cnn2ccc(N3CCC[C@@H]3c3cc(F)ccc3F)nc12 [Example 20, (R)-5-(2-(2,5-difluorophenyl)pyrrolidin-1-yl)-N-(tetrahydro-2H-pyran-4-yl)pyrazolo[1,5-a]pyrimidine-3-carboxamide] | 78.9%
22 | Cn1cnc(CNC(=O)c2cnn3ccc(N4CCC[C@@H]4c4cc(F)ccc4F)nc23)c1 [Example 21, (R)-5-(2-(2,5-difluorophenyl)pyrrolidin-1-yl)-N-((1-methyl-1H-imidazol-4-yl)methyl) pyrazole[1,5-a]pyrimidine-3-carboxamide] | 5.8%
23 | Cn1cc(CNC(=O)c2cnn3ccc(N4CCC[C@@H]4c4cc(F)ccc4F)nc23)cn1 [Example 22, (R)-5-(2-(2,5-difluorophenyl)pyrrolidin-1-yl)-N-((1-methyl-1H-pyrazol-4-yl)methyl)pyrazolo[1,5-a]pyrimidine-3-carboxamide] | 9.8%
24 | O=C(NCCN1CCNC1=O)c1cnn2ccc(N3CCC[C@@H]3c3cc(F)ccc3F)nc12 [Example 24, (R)-5-(2-(2,5-difluorophenyl)pyrrolidin-1-yl)-N-(2-(2-oxoimidazolidin-1-yl)ethyl) pyrazole[1,5-a]pyrimidine-3-carboxamide] | 11.5%
